In patent publication US12655123B2, “Heteroaryl compounds, solid forms, preparation methods and uses thereof” (InventisBio Co., Ltd., priority 2022, dated 2026):
In brackets after ≈: the same amount, converted by molar mass. Entries after “also recorded” stand apart in the source; their conditions may differ. Structures can show the parent of a compound that is named as a salt.

Assays:
[1] = Dynamic vapor sorption (DVS) analysis; format: physicochemical; details: for hygroscopic weight gain / water uptake (DVS): at 90% RH
Protocol: Dynamic Vapor Sorption (DVS) Analysis: Moisture sorption/desorption data was collected on a DVS Intrinsic PLUS (SMS, UK). The sample was placed into a tared sample chamber and automatically weighed. The sample was dried at 40° C. until the dm/dt was less than 0.002% and cooled to 25° C.

[2] = system: IL23; details: as tested in PCT/CN2021/140271; read-out: HEK blue IL23 IC50; cited from earlier work
[3] = Solubility in bio-relevant media (FaSSIF, FeSSIF, SGF); format: physicochemical
Text: (§1) High Performance Liquid Chromatography (HPLC): a representative HPLC method is shown below, which can be used, for example, to analyze the purity, solubility, and stability of Compound 1 herein.

[4] = Inter-conversion study among identified anhydrates in organic solvents; format: physicochemical; details: different organic solvents, RT to 60° C.
Protocol: Inter-conversion study among identified anhydrates (Form I, Form II, Form III, Form IV, Form V, Form VIII, Form X, Form XIII, Form XIV, Form XV) was conducted in different organic solvents between RT to 60° C.

[5] = Solid stability; format: physicochemical
Text: as §1

[6] = Slurry bridging studies among Form I, Form III and Form VI under different water activities; format: physicochemical; details: versus Form I and Form VI
[7] = Simulated Gastric Fluid (SGF), simulated gastric fluid, thermodynamic from solid, SGF
[8] = thermodynamic from solid, FaSSIF
[9] = thermodynamic from solid, FeSSIF

In the case of `[2H]C([2H])([2H])NC(=O)c1nnc(NC(=O)C2CC2)cc1Nc1ncc(Cl)cc1S(C)(=O)=O` [choline salt Form K], the “hygroscopic weight gain / water uptake (DVS)” value [1] is reported as “about 23%”.

With `[2H]C([2H])([2H])NC(=O)c1nnc(NC(=O)C2CC2)cc1Nc1ncc(Cl)cc1S(C)(=O)=O` [phosphate Form E] the “hygroscopic weight gain / water uptake (DVS)” value [1] was “about 0.92%”.

For `[2H]C([2H])([2H])NC(=O)c1nnc(NC(=O)C2CC2)cc1Nc1ncc(Cl)cc1S(C)(=O)=O` [Compound 1], the IC50 [2] is listed as 2.5 nM.

In the case of `[2H]C([2H])([2H])NC(=O)c1nnc(NC(=O)C2CC2)cc1Nc1ncc(Cl)cc1S(C)(=O)=O` [Form III], the “Solubility (in words)” value [3] is reported as “low and pH-dependent with higher solubility observed in Simulated Gastric Fluid (SGF)”, the solubility at 0.5 h [3, 7] is reported as 7.3 µg/mL (≈ 17.1 µM) and the solubility at 2 h [3, 7] is reported as 8.2 µg/mL (≈ 19.2 µM). For the same molecule, the solubility at 24 h [3, 7] was 5.7 µg/mL (≈ 13.3 µM), the solubility at 0.5 h [3, 8] was 1.1 µg/mL (≈ 2.57 µM) and the solubility at 2 h [3, 8] was 1.1 µg/mL (≈ 2.57 µM). The solubility at 24 h [3, 8] was 1.3 µg/mL (≈ 3.04 µM), the solubility at 0.5 h [3, 9] was 2.6 µg/mL (≈ 6.08 µM) and the solubility at 2 h [3, 9] was 3.4 µg/mL (≈ 7.95 µM). For the same molecule, the solubility at 24 h [3, 9] was 4.1 µg/mL (≈ 9.58 µM), the “relative stability among anhydrate forms” value [4] was “most stable anhydrate form” and the Solid stability ([5]; 40° C./75% RH for 7 d) was “physically and chemically stable; also recorded: Chemically and physically stable”. The Solid stability ([5]; 60° C. for 7 d) was “physically and chemically stable; also recorded: Chemically and physically stable”, the Solid stability ([5]; 92.5% RH for 10 d) was “crystal form remained unchanged; also recorded: Physically stable” and the “water activity up to which the form is more stable” value ([6]; 25° C.) was “not more than 0.56”. The “water activity up to which the form is more stable” value ([6]; 50° C.) was no more than 0.83, the DVS reversibility [1] was “Reversible” and the “DVS Wt. gain %” value ([1]; 0-80% RH) was 0.09%, 0-80% RH. For the same molecule, the “DVS Wt. gain %” value ([1]; 80-90% RH) was 0.03%, 80-90% RH and the “hygroscopic weight gain / water uptake (DVS)” value [1] was 0.13%.

In the case of `[2H]C([2H])([2H])NC(=O)c1nnc(NC(=O)C2CC2)cc1Nc1ncc(Cl)cc1S(C)(=O)=O` [sulfate Form B], the solubility ([3]; bio-relevant media (FaSSIF, FeSSIF, SGF), fassgf or other biorelevant, thermodynamic from solid) is reported as less than 20 µg/mL and the “hygroscopic weight gain / water uptake (DVS)” value [1] is reported as “about 1.0%”.

In the case of `[2H]C([2H])([2H])NC(=O)c1nnc(NC(=O)C2CC2)cc1Nc1ncc(Cl)cc1S(C)(=O)=O` [sulfate Form A], the “hygroscopic weight gain / water uptake (DVS)” value [1] is reported as “about 10%”.
